Measured values taken from ChEMBL document CHEMBL1201862, “PubChem BioAssay data set” (2004).
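Where inhibition never reached the appropriate level, the endpoint shown equals the highest concentration tested. Otherwise, values were interpolated linearly from a five-concentration, 48-hour dose response in 96-well plates. The concentration for 50% growth inhibition is given as GI50.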 Activity calls are given as the source filed them. Rule as the data show it: active = GI50 up to about 1.1 µM and inactive = higher.

Experiments:
Test in all cases: DTP human tumour cell line panel, 48 h
[1] = test system: M14
[2] = test system: SK-OV-3
[3] = test system: A549
[4] = test system: U-251
[5] = test system: SF-539
[6] = test system: MDA-MB-435
[7] = test system: HOP-92
[8] = test system: A498
[9] = test system: OVCAR-4
[10] = test system: KM12
[11] = test system: NCI-H522
[12] = test system: EKVX
[13] = test system: NCI/ADR-RES
[14] = test system: K562
[15] = test system: UACC-257
[16] = test system: SR
[17] = test system: SW-620
[18] = test system: MDA-N
[19] = test system: MCF7
[20] = test system: LOX IMVI
[21] = test system: UACC-62
[22] = test system: SF-295
[23] = test system: 786-0
[24] = test system: UO-31
[25] = test system: HL-60
[26] = test system: SNB-19
[27] = test system: OVCAR-5
[28] = test system: HT-29
[29] = test system: NCI-H23
[30] = test system: CCRF-CEM
[31] = test system: SF-268
[32] = test system: T47D
[33] = test system: PC-3
[34] = test system: ACHN
[35] = test system: IGROV-1
[36] = test system: CAKI-1
[37] = test system: SNB-75
[38] = test system: TK-10
[39] = test system: HCT-15
[40] = test system: COLO 205
[41] = test system: Malme-3M
[42] = test system: DU-145
[43] = test system: NCI-H460
[44] = test system: SK-MEL-28
[45] = test system: OVCAR-8
[46] = test system: BT-549
[47] = test system: MDA-MB-231
[48] = test system: SK-MEL-5
[49] = test system: SK-MEL-2
[50] = test system: HCT-116
[51] = test system: Hs-578T
[52] = test system: NCI-H226
[53] = test system: SN12C
[54] = test system: HCC 2998
[55] = test system: HOP-62
[56] = test system: MOLT-4
[57] = test system: OVCAR-3
[58] = test system: RPMI-8226
[59] = test system: RXF 393

Question: `CC1(O)CC23CC1CCC2(C)C12CCCC(C)(C(=O)O1)C2CC3O` (stereo unspecified) was tested. Which GI50 [1] did it give?
Answer: Its GI50 is > 100 µM (inactive).

Question: And the GI50 [2]?
Answer: Its GI50 is > 100 µM (inactive).

Question: And the GI50 [3]?
Answer: The GI50 was > 100 µM (inactive).

Question: What about the GI50 [4] of the same compound?
Answer: Its GI50 is > 100 µM (inactive).

Question: And the GI50 [5]?
Answer: Its GI50 is > 100 µM (inactive).

Question: What about the GI50 [6] of the same compound?
Answer: The GI50 was > 100 µM (inactive).

Question: What about the GI50 [7] of the same compound?
Answer: The GI50 was > 100 µM (inactive).

Question: What about the GI50 [8] of the same compound?
Answer: Its GI50 is > 100 µM (inactive).

Question: And the GI50 [9]?
Answer: The GI50 was > 100 µM (inactive).

Question: And the GI50 [10]?
Answer: Its GI50 is > 100 µM (inactive).

Question: And the GI50 [11]?
Answer: Its GI50 is > 100 µM (inactive).

Question: What about the GI50 [12] of the same compound?
Answer: The GI50 was > 100 µM (inactive).

Question: And the GI50 [13]?
Answer: Its GI50 is > 100 µM (inactive).

Question: And the GI50 [14]?
Answer: Its GI50 is > 100 µM (inactive).

Question: And the GI50 [15]?
Answer: The GI50 was > 100 µM (inactive).

Question: And the GI50 [16]?
Answer: Its GI50 is > 100 µM (inactive).

Question: And the GI50 [17]?
Answer: Its GI50 is > 100 µM (inactive).

Question: What about the GI50 [18] of the same compound?
Answer: Its GI50 is > 100 µM (inactive).

Question: What about the GI50 [19] of the same compound?
Answer: The GI50 was > 100 µM (inactive).

Question: And the GI50 [20]?
Answer: Its GI50 is > 100 µM (inactive).

Question: What about the GI50 [21] of the same compound?
Answer: Its GI50 is > 100 µM (inactive).

Question: What about the GI50 [22] of the same compound?
Answer: Its GI50 is > 100 µM (inactive).

Question: And the GI50 [23]?
Answer: Its GI50 is > 100 µM (inactive).

Question: And the GI50 [24]?
Answer: Its GI50 is > 100 µM (inactive).

Question: And the GI50 [25]?
Answer: Its GI50 is > 10 µM (inactive).

Question: What about the GI50 [26] of the same compound?
Answer: The GI50 was > 100 µM (inactive).

Question: What about the GI50 [27] of the same compound?
Answer: The GI50 was > 100 µM (inactive).

Question: And the GI50 [28]?
Answer: The GI50 was > 100 µM (inactive).

Question: What about the GI50 [29] of the same compound?
Answer: Its GI50 is > 100 µM (inactive).

Question: What about the GI50 [30] of the same compound?
Answer: Its GI50 is > 100 µM (inactive).

Question: What about the GI50 [31] of the same compound?
Answer: The GI50 was > 100 µM (inactive).

Question: What about the GI50 [32] of the same compound?
Answer: Its GI50 is > 100 µM (inactive).

Question: And the GI50 [33]?
Answer: The GI50 was > 100 µM (inactive).

Question: And the GI50 [34]?
Answer: The GI50 was > 100 µM (inactive).

Question: And the GI50 [35]?
Answer: Its GI50 is > 100 µM (inactive).

Question: What about the GI50 [36] of the same compound?
Answer: The GI50 was > 100 µM (inactive).

Question: What about the GI50 [37] of the same compound?
Answer: The GI50 was > 100 µM (inactive).

Question: And the GI50 [38]?
Answer: Its GI50 is > 100 µM (inactive).

Question: And the GI50 [39]?
Answer: Its GI50 is greater than 100 µM.

Question: And the GI50 [40]?
Answer: The GI50 was > 100 µM (inactive).

Question: What about the GI50 [41] of the same compound?
Answer: Its GI50 is > 100 µM (inactive).

Question: What about the GI50 [42] of the same compound?
Answer: Its GI50 is > 100 µM (inactive).

Question: What about the GI50 [43] of the same compound?
Answer: The GI50 was > 100 µM (inactive).

Question: And the GI50 [44]?
Answer: The GI50 was > 100 µM (inactive).

Question: And the GI50 [45]?
Answer: Its GI50 is > 100 µM (inactive).

Question: What about the GI50 [46] of the same compound?
Answer: Its GI50 is > 100 µM (inactive).

Question: And the GI50 [47]?
Answer: The GI50 was > 100 µM (inactive).

Question: And the GI50 [48]?
Answer: The GI50 was > 100 µM (inactive).

Question: What about the GI50 [49] of the same compound?
Answer: Its GI50 is > 100 µM (inactive).

Question: And the GI50 [50]?
Answer: Its GI50 is > 100 µM (inactive).

Question: What about the GI50 [51] of the same compound?
Answer: The GI50 was > 100 µM (inactive).

Question: And the GI50 [52]?
Answer: The GI50 was > 100 µM (inactive).

Question: What about the GI50 [53] of the same compound?
Answer: The GI50 was > 100 µM (inactive).

Question: What about the GI50 [54] of the same compound?
Answer: The GI50 was > 100 µM (inactive).

Question: What does the source list for `N#CC(C#N)/N=N/c1ccc(-c2nc3ccccc3[nH]2)cc1`?
Answer: GI50 [1]: 20.8 µM (inactive); GI50 [2]: > 100 µM (inactive); GI50 [3]: > 100 µM (inactive); GI50 [4]: 28.1 µM (inactive); GI50 [55]: > 100 µM (inactive); GI50 [5]: 15.9 µM (inactive); GI50 [6]: 18 µM (inactive); GI50 [7]: 22.5 µM (inactive); GI50 [56]: 10.9 µM (inactive); GI50 [8]: > 100 µM (inactive); GI50 [9]: 22 µM (inactive); GI50 [10]: 59.2 µM (inactive); GI50 [11]: 2.81 µM (inactive); GI50 [12]: 50.7 µM (inactive); GI50 [13]: 17.6 µM (inactive); GI50 [14]: 19.6 µM (inactive); GI50 [15]: 14.9 µM (inactive); GI50 [16]: 18.5 µM (inactive); GI50 [17]: 11.5 µM (inactive); GI50 [18]: 20 µM (inactive); GI50 [19]: 11.1 µM (inactive); GI50 [20]: 14.7 µM (inactive); GI50 [57]: 13.8 µM (inactive); GI50 [22]: > 100 µM (inactive); GI50 [23]: 21.2 µM (inactive); GI50 [24]: 14 µM (inactive); GI50 [25]: 0.288 µM (active); GI50 [26]: > 100 µM (inactive); GI50 [27]: > 100 µM (inactive); GI50 [28]: 28.7 µM (inactive); GI50 [29]: 20 µM (inactive); GI50 [30]: 9.84 µM (inactive); GI50 [31]: 28.2 µM (inactive); GI50 [32]: 16.6 µM (inactive); GI50 [33]: 15.8 µM (inactive); GI50 [34]: 13.7 µM (inactive); GI50 [35]: 16.8 µM (inactive); GI50 [36]: 24.5 µM (inactive); GI50 [37]: 42 µM (inactive); GI50 [38]: 30.8 µM (inactive); GI50 [39]: 21.7 µM; GI50 [40]: 7.57 µM (inactive); GI50 [41]: 13.6 µM (inactive); GI50 [42]: 16.4 µM (inactive); GI50 [43]: 94.6 µM (inactive); GI50 [58]: 20.7 µM (inactive); GI50 [44]: 20.2 µM (inactive); GI50 [45]: 23.1 µM (inactive); GI50 [59]: 19.2 µM (inactive); GI50 [46]: 11 µM (inactive); GI50 [47]: 13.7 µM (inactive); GI50 [48]: 35.6 µM (inactive); GI50 [49]: 21.7 µM (inactive); GI50 [50]: 15.4 µM (inactive); GI50 [51]: 52 µM (inactive); GI50 [52]: 50.1 µM (inactive); GI50 [53]: > 100 µM (inactive)
